Laboratory results taken from the kinase profiling compilation of Christmann-Franck et al. (2016).

Tests used:
Assay in all cases: radiometric filter-binding kinase assay
[1] = system: AKT1 (human), P31749 [S473D]
[2] = target: CHEK2 (human) (UniProt O96017)
[3] = target: CSNK1D (human) (UniProt P48730)
[4] = target: CaMK1 (human) (UniProt Q14012)
[5] = target: DYRK1A (human) (UniProt Q13627)
[6] = target: DYRK3 (human) (UniProt O43781)
[7] = target: EPHB2 (human) (UniProt P29323)
[8] = target: IKBKB (human) (UniProt O14920)
[9] = target: IKBKE (human) (UniProt Q14164)
[10] = target: IRAK4 (human) (UniProt Q9NWZ3)
[11] = target: JAK2 JH1 JH2 (human) (UniProt O60674)
Chain of JAK2 JH1 JH2 (human) (O60674 whole entry, looked up): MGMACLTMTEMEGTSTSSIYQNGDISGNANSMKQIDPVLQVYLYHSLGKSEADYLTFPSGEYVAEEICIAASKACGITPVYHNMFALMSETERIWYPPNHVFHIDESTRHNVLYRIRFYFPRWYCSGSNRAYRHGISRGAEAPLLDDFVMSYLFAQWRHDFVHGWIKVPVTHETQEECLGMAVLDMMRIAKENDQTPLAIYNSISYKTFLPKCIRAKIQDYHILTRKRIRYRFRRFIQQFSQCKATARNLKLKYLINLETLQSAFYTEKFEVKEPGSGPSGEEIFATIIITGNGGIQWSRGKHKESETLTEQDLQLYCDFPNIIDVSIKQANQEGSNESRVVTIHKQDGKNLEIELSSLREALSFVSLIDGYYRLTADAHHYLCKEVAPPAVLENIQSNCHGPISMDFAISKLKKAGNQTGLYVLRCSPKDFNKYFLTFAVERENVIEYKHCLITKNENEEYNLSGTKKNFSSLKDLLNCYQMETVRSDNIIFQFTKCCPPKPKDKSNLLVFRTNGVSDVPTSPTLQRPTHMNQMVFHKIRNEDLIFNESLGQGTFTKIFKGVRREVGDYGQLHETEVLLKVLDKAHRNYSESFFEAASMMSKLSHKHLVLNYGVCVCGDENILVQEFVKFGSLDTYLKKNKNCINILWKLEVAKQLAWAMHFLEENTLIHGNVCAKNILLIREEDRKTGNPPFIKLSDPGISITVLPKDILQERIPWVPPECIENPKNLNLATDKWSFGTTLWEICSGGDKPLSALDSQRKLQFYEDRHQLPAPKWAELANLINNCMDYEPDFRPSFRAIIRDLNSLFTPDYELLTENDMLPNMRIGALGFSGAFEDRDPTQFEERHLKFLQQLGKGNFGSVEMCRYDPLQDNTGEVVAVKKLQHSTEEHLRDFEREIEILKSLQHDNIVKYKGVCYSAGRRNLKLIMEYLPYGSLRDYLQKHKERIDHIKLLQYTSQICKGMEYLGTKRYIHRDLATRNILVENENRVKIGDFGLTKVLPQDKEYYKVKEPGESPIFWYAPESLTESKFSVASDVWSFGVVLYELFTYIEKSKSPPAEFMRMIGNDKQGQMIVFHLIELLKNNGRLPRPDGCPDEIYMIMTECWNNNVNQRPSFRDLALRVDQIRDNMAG

[12] = target: MAP2K1 (human) (UniProt Q02750); conditions: compound 1.0 µM
[13] = target: MAP3K11 (human) (UniProt Q16584)
Chain of MAP3K11 (human) (Q16584 whole entry, looked up): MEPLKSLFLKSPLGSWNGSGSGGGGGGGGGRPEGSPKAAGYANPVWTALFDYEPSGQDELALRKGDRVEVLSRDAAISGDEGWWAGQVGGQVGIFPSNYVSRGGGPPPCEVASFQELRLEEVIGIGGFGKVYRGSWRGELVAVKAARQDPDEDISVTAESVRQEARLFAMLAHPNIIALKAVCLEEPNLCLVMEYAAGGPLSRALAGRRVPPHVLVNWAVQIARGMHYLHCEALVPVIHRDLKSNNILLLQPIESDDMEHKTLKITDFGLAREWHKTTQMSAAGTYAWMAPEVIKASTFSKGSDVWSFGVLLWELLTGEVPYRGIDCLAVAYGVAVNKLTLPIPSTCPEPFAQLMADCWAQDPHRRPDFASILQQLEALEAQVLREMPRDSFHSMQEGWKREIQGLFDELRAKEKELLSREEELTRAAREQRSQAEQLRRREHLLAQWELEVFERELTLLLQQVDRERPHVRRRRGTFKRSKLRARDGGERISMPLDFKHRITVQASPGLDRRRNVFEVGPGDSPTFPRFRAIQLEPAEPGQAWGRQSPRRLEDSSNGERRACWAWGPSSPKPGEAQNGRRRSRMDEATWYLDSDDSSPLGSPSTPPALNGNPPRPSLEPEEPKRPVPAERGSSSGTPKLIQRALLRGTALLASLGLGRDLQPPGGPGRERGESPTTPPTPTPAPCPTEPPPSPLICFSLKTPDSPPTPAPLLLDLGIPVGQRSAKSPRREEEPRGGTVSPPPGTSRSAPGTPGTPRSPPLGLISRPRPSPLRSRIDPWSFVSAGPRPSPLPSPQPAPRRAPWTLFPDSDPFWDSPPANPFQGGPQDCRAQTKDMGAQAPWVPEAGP

[14] = target: MAPK14 (human) (UniProt Q16539)
[15] = target: MAPK3 (human) (UniProt P27361)
[16] = target: MAPK8 (human) (UniProt P45983)
Chain of MAPK8 (human) (P45983 whole entry, looked up): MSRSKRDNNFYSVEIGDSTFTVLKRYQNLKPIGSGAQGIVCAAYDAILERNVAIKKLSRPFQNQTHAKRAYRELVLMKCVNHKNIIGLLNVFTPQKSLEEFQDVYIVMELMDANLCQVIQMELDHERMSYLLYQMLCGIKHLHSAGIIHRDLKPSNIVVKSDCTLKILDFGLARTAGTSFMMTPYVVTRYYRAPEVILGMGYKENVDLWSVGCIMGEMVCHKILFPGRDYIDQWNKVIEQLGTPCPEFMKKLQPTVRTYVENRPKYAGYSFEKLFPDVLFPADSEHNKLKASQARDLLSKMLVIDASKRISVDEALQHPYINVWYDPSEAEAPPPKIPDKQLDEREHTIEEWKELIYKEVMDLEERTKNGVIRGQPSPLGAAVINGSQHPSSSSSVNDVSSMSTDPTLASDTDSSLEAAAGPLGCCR

[17] = target: MAPK9 (human) (UniProt P45984)
[18] = target: MAPKAPK2 (human) (UniProt P49137)
[19] = target: MARK1 (human) (UniProt Q9P0L2)
[20] = target: MARK2 (human) (UniProt Q7KZI7)
[21] = target: MARK3 (human) (UniProt P27448)
Chain of MARK3 (human) (P27448 whole entry, looked up): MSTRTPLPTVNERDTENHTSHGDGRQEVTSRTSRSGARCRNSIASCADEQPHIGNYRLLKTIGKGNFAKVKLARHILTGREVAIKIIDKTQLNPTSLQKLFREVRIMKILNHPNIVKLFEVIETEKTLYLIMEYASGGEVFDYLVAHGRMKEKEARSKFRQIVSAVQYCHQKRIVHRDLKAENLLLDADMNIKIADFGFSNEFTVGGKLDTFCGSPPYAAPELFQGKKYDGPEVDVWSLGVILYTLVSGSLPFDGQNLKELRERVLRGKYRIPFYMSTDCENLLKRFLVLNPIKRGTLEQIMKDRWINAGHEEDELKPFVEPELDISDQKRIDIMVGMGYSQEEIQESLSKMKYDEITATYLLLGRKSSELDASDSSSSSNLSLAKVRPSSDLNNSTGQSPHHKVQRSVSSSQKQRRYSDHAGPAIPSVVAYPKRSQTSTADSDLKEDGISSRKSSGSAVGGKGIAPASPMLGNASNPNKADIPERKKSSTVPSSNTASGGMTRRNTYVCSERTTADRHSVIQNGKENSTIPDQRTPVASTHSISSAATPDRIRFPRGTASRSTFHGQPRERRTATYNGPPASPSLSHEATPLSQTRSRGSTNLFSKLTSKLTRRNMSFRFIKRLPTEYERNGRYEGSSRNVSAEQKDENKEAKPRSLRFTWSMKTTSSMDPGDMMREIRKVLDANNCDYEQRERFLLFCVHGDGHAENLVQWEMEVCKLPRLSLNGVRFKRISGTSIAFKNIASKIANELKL

[22] = target: MKNK1 (human) (UniProt Q9BUB5)
[23] = target: MKNK2 (human) (UniProt Q9HBH9)
[24] = target: NEK2 (human) (UniProt P51955)
[25] = target: NEK6 (human) (UniProt Q9HC98)
[26] = target: NTRK1 (human) (UniProt P04629)
[27] = target: NUAK1 (human) (UniProt O60285)
[28] = target: PAK4 (human) (UniProt O96013)
[29] = target: PIM1 (human) (UniProt P11309)
[30] = target: RPS6KA1 KD1 KD2 (human) (UniProt Q15418)
[31] = system: RPS6KB1 (human), P23443 [T412E]
[32] = target: STK11 CAB39 STRADA (human) (UniProt Q9Y376+Q7RTN6+Q15831)
[33] = target: STK3 (human) (UniProt Q13188)
[34] = target: TBK1 (human) (UniProt Q9UHD2)
Chain of TBK1 (human) (Q9UHD2 whole entry, looked up): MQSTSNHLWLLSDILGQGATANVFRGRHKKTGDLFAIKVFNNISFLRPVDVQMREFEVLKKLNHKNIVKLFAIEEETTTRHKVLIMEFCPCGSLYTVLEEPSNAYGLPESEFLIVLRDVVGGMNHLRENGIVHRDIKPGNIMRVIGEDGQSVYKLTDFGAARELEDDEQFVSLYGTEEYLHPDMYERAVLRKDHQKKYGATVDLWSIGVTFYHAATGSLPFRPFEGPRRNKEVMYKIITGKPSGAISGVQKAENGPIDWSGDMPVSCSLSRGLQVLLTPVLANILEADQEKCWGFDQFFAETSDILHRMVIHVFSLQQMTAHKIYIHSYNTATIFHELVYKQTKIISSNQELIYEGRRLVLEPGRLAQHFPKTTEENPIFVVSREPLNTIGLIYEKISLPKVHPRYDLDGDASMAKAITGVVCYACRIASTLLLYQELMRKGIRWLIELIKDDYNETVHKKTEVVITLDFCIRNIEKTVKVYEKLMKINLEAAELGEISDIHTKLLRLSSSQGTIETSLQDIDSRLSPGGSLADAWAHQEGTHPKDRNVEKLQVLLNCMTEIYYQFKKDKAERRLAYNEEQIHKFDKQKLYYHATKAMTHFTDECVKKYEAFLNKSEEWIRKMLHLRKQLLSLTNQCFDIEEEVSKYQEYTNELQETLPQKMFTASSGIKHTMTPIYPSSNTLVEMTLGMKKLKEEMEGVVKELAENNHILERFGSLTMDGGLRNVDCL

[35] = target: TTK (human) (UniProt P33981)

Chain of AKT1 (human), P31749 [S473D] (P31749 whole entry S473D, looked up): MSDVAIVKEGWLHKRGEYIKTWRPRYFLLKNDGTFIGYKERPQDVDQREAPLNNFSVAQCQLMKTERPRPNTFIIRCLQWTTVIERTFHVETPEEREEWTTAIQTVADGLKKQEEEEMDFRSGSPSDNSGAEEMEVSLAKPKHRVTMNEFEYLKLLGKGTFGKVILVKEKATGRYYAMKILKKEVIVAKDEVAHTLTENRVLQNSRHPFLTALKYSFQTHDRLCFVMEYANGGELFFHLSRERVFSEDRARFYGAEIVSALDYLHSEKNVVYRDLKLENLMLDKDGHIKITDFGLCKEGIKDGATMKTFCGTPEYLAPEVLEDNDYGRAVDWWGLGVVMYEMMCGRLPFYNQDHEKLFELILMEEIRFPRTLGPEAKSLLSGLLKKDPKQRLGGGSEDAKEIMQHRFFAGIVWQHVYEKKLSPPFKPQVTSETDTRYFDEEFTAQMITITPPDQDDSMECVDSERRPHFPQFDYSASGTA
Chain of CHEK2 (human) (O96017 whole entry, looked up): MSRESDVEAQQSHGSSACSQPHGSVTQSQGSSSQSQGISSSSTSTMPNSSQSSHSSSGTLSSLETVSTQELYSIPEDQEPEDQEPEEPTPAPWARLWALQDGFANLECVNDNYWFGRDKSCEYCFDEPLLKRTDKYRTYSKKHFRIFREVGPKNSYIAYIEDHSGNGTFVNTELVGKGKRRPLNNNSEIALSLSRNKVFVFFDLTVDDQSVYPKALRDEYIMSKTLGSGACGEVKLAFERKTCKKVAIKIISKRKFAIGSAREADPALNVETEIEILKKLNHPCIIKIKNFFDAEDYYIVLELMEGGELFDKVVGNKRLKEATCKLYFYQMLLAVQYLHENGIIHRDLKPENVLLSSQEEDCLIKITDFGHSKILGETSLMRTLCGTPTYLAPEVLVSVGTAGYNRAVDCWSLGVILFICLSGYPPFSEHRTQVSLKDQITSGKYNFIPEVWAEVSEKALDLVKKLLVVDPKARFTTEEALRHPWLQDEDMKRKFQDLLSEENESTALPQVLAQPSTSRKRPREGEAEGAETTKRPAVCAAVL

- residual activity ([1]; compound 0.1 µM): 102%
- residual activity ([1]; compound 1.0 µM): 106%
- residual activity ([2]; compound 0.1 µM): 115%
- residual activity ([2]; compound 1.0 µM): 110%
- residual activity ([3]; compound 0.1 µM): 90%
- residual activity ([3]; compound 1.0 µM): 46%
- residual activity ([4]; compound 0.1 µM): 103%
- residual activity ([4]; compound 1.0 µM): 107%
- residual activity ([5]; compound 0.1 µM): 109%
- residual activity ([5]; compound 1.0 µM): 104%
- residual activity ([6]; compound 0.1 µM): 102%
- residual activity ([6]; compound 1.0 µM): 93%
- residual activity ([7]; compound 0.1 µM): 113%
- residual activity ([7]; compound 1.0 µM): 95%
- residual activity ([8]; compound 0.1 µM): 107%
- residual activity ([8]; compound 1.0 µM): 100%
- residual activity ([9]; compound 0.1 µM): 112%
- residual activity ([9]; compound 1.0 µM): 106%
- residual activity ([10]; compound 0.1 µM): 101%
- residual activity ([10]; compound 1.0 µM): 99%
- residual activity ([11]; compound 0.1 µM): 107%
- residual activity ([11]; compound 1.0 µM): 93%
- residual activity [12]: 98%
- residual activity ([13]; compound 0.1 µM): 104%
- residual activity ([13]; compound 1.0 µM): 107%
- residual activity ([14]; compound 0.1 µM): 56%
- residual activity ([14]; compound 1.0 µM): 16%
- residual activity ([15]; compound 0.1 µM): 105%
- residual activity ([15]; compound 1.0 µM): 100%
- residual activity ([16]; compound 0.1 µM): 111%
- residual activity ([16]; compound 1.0 µM): 101%
- residual activity ([17]; compound 0.1 µM): 105%
- residual activity ([17]; compound 1.0 µM): 90%
- residual activity ([18]; compound 0.1 µM): 117%
- residual activity ([18]; compound 1.0 µM): 108%
- residual activity ([19]; compound 0.1 µM): 107%
- residual activity ([19]; compound 1.0 µM): 113%
- residual activity ([20]; compound 0.1 µM): 121%
- residual activity ([20]; compound 1.0 µM): 110%
- residual activity ([21]; compound 0.1 µM): 101%
- residual activity ([21]; compound 1.0 µM): 98%
- residual activity ([22]; compound 0.1 µM): 103%
- residual activity ([22]; compound 1.0 µM): 93%
- residual activity ([23]; compound 0.1 µM): 81%
- residual activity ([23]; compound 1.0 µM): 91%
- residual activity ([24]; compound 0.1 µM): 109%
- residual activity ([24]; compound 1.0 µM): 92%
- residual activity ([25]; compound 0.1 µM): 107%
- residual activity ([25]; compound 1.0 µM): 100%
- residual activity ([26]; compound 0.1 µM): 118%
- residual activity ([26]; compound 1.0 µM): 99%
- residual activity ([27]; compound 0.1 µM): 96%
- residual activity ([27]; compound 1.0 µM): 84%
- residual activity ([28]; compound 0.1 µM): 89%
- residual activity ([28]; compound 1.0 µM): 93%
- residual activity ([29]; compound 0.1 µM): 105%
- residual activity ([29]; compound 1.0 µM): 97%
- residual activity ([30]; compound 0.1 µM): 110%
- residual activity ([30]; compound 1.0 µM): 95%
- residual activity ([31]; compound 0.1 µM): 108%
- residual activity ([31]; compound 1.0 µM): 105%
- residual activity ([32]; compound 0.1 µM): 101%
- residual activity ([32]; compound 1.0 µM): 99%
- residual activity ([33]; compound 0.1 µM): 107%
- residual activity ([33]; compound 1.0 µM): 100%
- residual activity ([34]; compound 0.1 µM): 102%
- residual activity ([34]; compound 1.0 µM): 106%
- residual activity ([35]; compound 0.1 µM): 113%
- residual activity ([35]; compound 1.0 µM): 98%
Compound: Cc1cccc(-c2nn(C(=S)Nc3ccccc3)cc2-c2ccnc3ccccc23)n1
